Measured values reported in patent US20240216354A1, “IMMUNOMODULATORY IMIDE DRUGS AS ZETA-CHAIN-ASSOCIATED PROTEIN KINASE 70 (ZAP70) AGONISTS AND USES THEREOF” (Dana-Farber Cancer Institute, Inc., priority 2019, published 2024).

Experiments:
U266 cells [1] = assay: KHYG-1 NK cell cytotoxicity against calcein-AM-labeled U266 cells; assay type: cell-based; details: KHYG-1 cells, pomalidomide 0.25-1 μM 24 h, then 4 h with U266 at indicated E/T ratios
Experimental: KHYG-1 cells were cultured with pomalidomide (0.25-1 μM) for 24 h. (A) Whole cell lysates were subjected to immunoblotting using indicated Abs. (B) KHYG-1 cells were incubated with calcein-AM-stained U266 cells for 4 h at the indicated effector/target (E/T) ratios. Percent specific lysis was calculated as described previously. (C) KHYG-1 cells were transfected with Scsi or Zap-70si, and then cultured with pomalidomide (0.25 μM) for 72 h in the absence of IL-2. Viable cell number was determined, and cells were then incubated with calcein AM-labeled U266 target cells for 4 h at indicated effector/target (E/T) ratios. Percent specific lysis was calculated as described previously. […] Cell growth was assessed by MTT assay. […] Percent specific lysis was calculated as previously described.
(A) KHYG-1 cells were transfected with Scsi or CRBNsi. […] Cells were counted and incubated with calcein AM-labeled U266 for 4 h at indicated effector/target (E/T) ratios.
(A, B) KHYG-1 cells were transfected with scrambled (Sc) or Zap-70 siRNAs, and then cultured for 72 h with lenalidomide (0.5 μM), in the absence of IL-2 (A) The viable cell number was measured by trypan-blue dye exclusion. […] Percent specific lysis was calculated as described previously. *: p<0.01 compared with Scsi.
KHYG-1 cells were transfected with scrambled (Sc) or IKZF3 siRNAs. […] Percent specific lysis was calculated as previously described. […]

NK-92 cells = assay: NK-92 cell growth by MTT assay; assay type: cell-based; details: Pom 0.03-3 μM, 72 h
Experimental: (§1) (A) NK-92 cells were cultured with Pom (0.5 and 1 μM) for 24 h. Whole cell lysates were subjected to immunoblotting using indicated Abs. (B) NK-92 cells were cultured with Pom (0.5 and 1 μM) for 48 h. The cells were subsequently incubated with calcein-AM-stained U266 cells for 4 h at the indicated effector/target (E/T) ratios. Percent specific lysis was calculated as described previously. (C) NK-92 cells were cultured with Pom (0.03-3 μM) for 72 h. Cell growth was assessed by MTT assay. (D) NK-92 cells were transfected with scrambled (Sc) or Zap-70 siRNA (Zap70si). After 72 h incubation, cell viability was measured by trypan-blue dye exclusion. For B, C, and D, data are representative of at least two independent experiments, and values are expressed in mean±SD.

U266 cells [2] = assay: NK-92 NK cell activity against calcein-AM-stained U266 cells; assay type: cell-based; details: NK-92 cells, 48 h; Pom 0.5 and 1 μM; CC-220 0.1 and 1 μM, E/T 2.5/1
Experimental: as §1
(A) NK-92 cells were cultured with Len (1 μM), Pom (0.01, 0.1, 1 μM) or CC-220 (0.01, 0.1, 1 μM) for 24 h. Whole cell lysates were subjected to immunoblotting using indicated Abs. (B) NK-92 cells were cultured with Pom (0.1 and 1 μM) or CC-220 ([…]) for 48 h. NK cell activity was measured by incubation with calcein AM-labeled U266 cells for 4 h at E/T ratio of 2.5/1. Percent specific lysis was calculated as previously described. Data are representative of three independent experiments, and values are expressed in mean±SD. *: p<0.01.

Jurkat cells = assay: Jurkat cell growth by MTT assay; assay type: cell-based; details: 0.01-1 μM, 72 h
Experimental: (A) PBMCs were cultured with pomalidomide (“Pom”) (0.01-1 μM) for 16 h. […] (B) PBMCs were cultured with pomalidomide (0.1 and 1 μM) for the indicated time periods. (C) PBMCs were cultured with lenalidomide (“Len”) (1 μM) for 16 h. (D) Primary T-cells from healthy volunteer were cultured with pomalidomide (0.25-1 μM) for 16 h. (E) Jurkat cells were cultured with pomalidomide (0.5 and 1 μM) for 16 h. Whole cell lysates were subjected to immunoblotting (A-E) using indicated Abs. (F) Jurkat cells were cultured with pomalidomide (0.01-1 μM) or lenalidomide (0.01-1 μM) for 72 h. Cell growth was assessed by MTT assay.

U266 cells [3] = assay: Primary NK cell cytolytic activity against calcein AM-labeled U266; assay type: cell-based, human; details: primary NK cells #1, #2, pomalidomide 0.25-1 μM 24 h, E/T 5/1 and 10/1
Experimental: KHYG-1 cells were cultured with pomalidomide (0.25-1 μM) for 24 h. (A) Whole cell lysates were subjected to immunoblotting using indicated Abs. (B) KHYG-1 cells were incubated with calcein-AM-stained U266 cells for 4 h at the indicated effector/target (E/T) ratios. Percent specific lysis was calculated as described previously. (C) KHYG-1 cells were transfected with Scsi or Zap-70si, and then cultured with pomalidomide (0.25 μM) for 72 h in the absence of IL-2. Viable cell number was determined, and cells were then incubated with calcein AM-labeled U266 target cells for 4 h at indicated effector/target (E/T) ratios. Percent specific lysis was calculated as described previously. (D) After transfection with Scsi or Zap-70si, cells were cultured with lenalidomide or pomalidomide for 72 h. Cell growth was assessed by MTT assay. (E) KHYG-1 cells were transfected with scrambled (Scsi) or CRBNsi. The transfectants were then cultured with pomalidomide (0.5 μM) for 24 h, and whole cell lysates were subjected to immunoblotting using indicated Abs. The arrow indicates CRBN expression. (F) Primary NK cells (#1, #2, #3, #4) were isolated from healthy volunteer's PBMCs, as described in Materials and Methods. NK cells were cultured with pomalidomide (0.5 μM) for 24 h, and whole cell lysates were subjected to immunoblotting using indicated Abs. […] Percent specific lysis was calculated as previously described.

SMILES: Nc1cccc2c1C(=O)N(C1CCC(=O)NC1=O)C2=O (centres unmarked) [pomalidomide]
- cytotoxicity against U266 cells (percent specific lysis) (U266 cells [1]): increased their cytotoxicity against U266 cells in a dose-dependent fashion
- cell growth (MTT) (NK-92 cells): neither Pom nor Zap-70 KD altered growth in NK-92 cells
- NK cell activity against U266 cells (percent specific lysis) (U266 cells [2]): upregulated NK activity
- proliferation / cell growth (MTT) (Jurkat cells): without altering their proliferation
- NK cytolytic activity against U266 cells (U266 cells [3]): significantly enhanced their NK cytolytic activity against U266 cells
